The compounds below were run against cruzipain (Trypanosoma cruzi, UniProt P25779) (assay: biochemical). Settings: 50 pM cruzipain, pH 5.5, 15 minutes preincubation, 2 μM Z-Phe-Arg-AMC substrate.
Description: The assay solutions were mixed and incubated for 15 minutes at room temperature prior to the addition of 2 μM of Z-Phe-Arg-AMC substrate. […] Percent of inhibition were calculated by fitting experimental values to standard mathematical model for dose response curve.

cruzipain, sequence (P25779 123-467): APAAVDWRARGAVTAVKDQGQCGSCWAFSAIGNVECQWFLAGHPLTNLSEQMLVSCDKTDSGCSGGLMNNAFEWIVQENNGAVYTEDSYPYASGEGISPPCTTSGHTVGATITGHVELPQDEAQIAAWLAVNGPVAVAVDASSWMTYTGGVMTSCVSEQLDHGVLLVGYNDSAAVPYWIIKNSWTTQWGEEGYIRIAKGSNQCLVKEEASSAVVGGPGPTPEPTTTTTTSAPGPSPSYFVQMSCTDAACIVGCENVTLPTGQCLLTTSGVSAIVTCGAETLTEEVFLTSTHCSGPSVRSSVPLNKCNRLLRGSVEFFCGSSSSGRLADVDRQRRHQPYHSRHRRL

**Q.** `CS(=O)(=O)c1ccc(-c2ccc([C@H](N[C@@H](CC(Cl)Cl)C(=O)N[C@H](C#N)Cc3ccc(C#N)cc3F)C(F)(F)F)cc2)cc1` [Example 1, (S)-4,4-Dichloro-N-[(S)-cyano-(4-cyano-2-fluoro-benzyl)-methyl]-2-[(S)-2,2,2-trifluoro-1-(4′-methanesulfonyl-biphenyl-4-yl)-ethylamino]-butyramide] was tested. Which IC50 did it give?
**A.** 0.14 nM

**Q.** `CC(C)(F)C[C@H](N[C@@H](c1ccc(-c2ccc(S(C)(=O)=O)cc2)cc1)C(F)(F)F)C(=O)N[C@H](C#N)Cc1ccc(C#N)cc1` [Example 3, (S)-4-Fluoro-4-methyl-2-[(S)-2,2,2-trifluoro-1-(4′-methanesulfonyl-biphenyl-4-yl)-ethylamino]-pentanoic acid [(S)-1-cyano-2-(4-cyano-phenyl)-ethyl]-amide] was tested. Which IC50 did it give?
**A.** 1.5 nM

**Q.** How did the IC50 turn out when `CC(C)(F)C[C@H](N[C@@H](c1ccc(-c2ccc(S(C)(=O)=O)cc2Cl)cc1)C(F)(F)F)C(=O)NC(C#N)Cc1ccc(C#N)cc1Cl` (stereo partly drawn) [Example 6, (S)-2-[(S)-1-(2′-Chloro-4′-methanesulfonyl-biphenyl-4-yl)-2,2,2-trifluoro-ethylamino]-4-fluoro-4-methyl-pentanoic acid [2-(2-chloro-4-cyano-phenyl)-1-cyano-ethyl]-amide] was run?
**A.** 1.2 nM

**Q.** How did the IC50 turn out when `CC(C)(F)C[C@H](N[C@@H](c1ccc(-c2ccc(S(C)(=O)=O)cc2Cl)cc1)C(F)(F)F)C(=O)NC(C#N)Cc1ccc(C#N)cc1F` (stereo partly drawn) [Example 7, (S)-2-[(S)-1-(2′-Chloro-4′-methanesulfonyl-biphenyl-4-yl)-2,2,2-trifluoro-ethylamino]-4-fluoro-4-methyl-pentanoic acid [1-cyano-2-(4-cyano-2-fluoro-phenyl)-ethyl]-amide] was run?
**A.** 0.9 nM

**Q.** Which IC50 does the source give for `CC(C)C[C@H](N[C@@H](c1ccc(-c2ccc(S(C)(=O)=O)cc2)cc1)C(F)(F)F)C(=O)NC(C#N)Cc1ccc(C#N)cc1` (stereo partly drawn) [Example 8, (S)-4-Methyl-2-[(S)-2,2,2-trifIuoro-1-(4′-methanesulfonyl-biphenyl-4-yl)-ethylamino]-pentanoic acid [1-cyano-2-(4-cyano-phenyl)-ethyl]-amide] here?
**A.** 0.2 nM

**Q.** With `CC(C)C[C@H](N[C@@H](c1ccc(Br)cc1)C(F)(F)F)C(=O)N[C@H](C#N)Cc1ccc(S(C)(=O)=O)cc1` [Example 9, (S)-2-[(S)-1-(4-Bromo-phenyl)-2,2,2-trifluoro-ethylamino]-4-methyl-pentanoic acid [(S)-1-cyano-2-(4-methanesulfonyl-phenyl)-ethyl]-amide] as the compound, how does the IC50 read?
**A.** 0.6 nM

**Q.** With `CC(C)(F)C[C@H](N[C@@H](c1ccc(-c2ccc(S(C)(=O)=O)cc2)cc1)C(F)(F)F)C(=O)N[C@H](C#N)Cc1ccc(-c2cccnc2)cc1` [Example 14, (S)-4-Fluoro-4-methyl-2-[(S)-2,2,2-trifluoro-1-(4′-methanesulfonyl-biphenyl-4-yl)-ethylamino]-pentanoic acid [(S)-1-cyano-2-(4-pyridin-3-yl-phenyl)-ethyl]-amide] as the compound, how does the IC50 read?
**A.** 7 nM

**Q.** Which IC50 does the source give for `CCOC(=O)c1ccc(C[C@@H](C#N)NC(=O)[C@H](CC(C)(C)F)N[C@@H](c2ccc(-c3ccc(S(C)(=O)=O)cc3)cc2)C(F)(F)F)cc1` [Example 15, 4-((S)-2-Cyano-2-{(S)-4-fluoro-4-methyl-2-[(S)-2,2,2-trifluoro-1-(4′-methanesulfonyl-biphenyl-4-yl)-ethylamino]-pentanoylamino}-ethyl)-benzoic acid ethyl ester] here?
**A.** 4.4 nM

**Q.** With `CC(C)(F)C[C@H](N[C@@H](c1ccc(-c2ccc(S(C)(=O)=O)cc2)cc1)C(F)(F)F)C(=O)N[C@H](C#N)Cc1ccc(F)cc1` [Example 16, (S)-4-Fluoro-4-methyl-2-[(S)-2,2,2-trifluoro-1-(4′-methanesulfonyl-biphenyl-4-yl)-ethylamino]-pentanoic acid [(S)-cyano-(4-fluoro-benzyl)-methyl]-amide] as the compound, how does the IC50 read?
**A.** 6.1 nM

**Q.** With `CC(C)(F)C[C@H](N[C@@H](c1ccc(-c2ccc(S(C)(=O)=O)cc2)cc1)C(F)(F)F)C(=O)N[C@H](C#N)Cc1ccccc1F` [Example 17, (S)-Fluoro-4-methyl-2-[(S)-2,2,2-trifluoro-1-(4′-methanesulfonyl-biphenyl-4-yl)-ethylamino]-pentanoic acid [(S)-1-cyano-2-(2-fluoro-phenyl)-ethyl]-amide] as the compound, how does the IC50 read?
**A.** 0.9 nM

**Q.** `CC(C)(F)C[C@H](N[C@@H](c1ccc(-c2ccc(S(C)(=O)=O)cc2)cc1)C(F)(F)F)C(=O)N[C@H](C#N)Cc1ccc(Cl)cc1Cl` [Example 18, (S)-4-Fluoro-4-methyl-2-[(S)-2,2,2-trifluoro-1-(4′-methanesulfonyl-biphenyl-4-yl)-ethylamino]-pentanoic acid [(S)-1-cyano-2-(2,4-dichloro-phenyl)-ethyl]-amide] was tested. Which IC50 did it give?
**A.** 1.3 nM

**Q.** For `CC(C)(F)C[C@H](N[C@@H](c1ccc(-c2ccc(S(C)(=O)=O)cc2)cc1)C(F)(F)F)C(=O)N[C@H](C#N)Cc1ccc(C(F)(F)F)cc1` [Example 19, (S)-4-Fluoro-4-methyl-2-[(S)-2,2,2-trifluoro-1-(4′-methanesulfonyl-biphenyl-4-yl)-ethylamino]-pentanoic acid [(S)-1-cyano-2-(4-trifluoromethyl-phenyl)-ethyl]-amide], which IC50 is on record?
**A.** 12.4 nM

**Q.** With `CC(C)(F)C[C@H](N[C@@H](c1ccc(-c2ccc([C@@H](O)C(F)F)cc2)cc1)C(F)(F)F)C(=O)N[C@H](C#N)Cc1ccc(S(C)(=O)=O)cc1` [Example 20, (S)-2-{(S)-1-[4′-((R)-2,2-Difluoro-1-hydroxy-ethyl)-biphenyl-4-yl]-2,2,2-trifluoro-ethylamino}-4-fluoro-4-methyl-pentanoic acid [(S)-1-cyano-2-(4-methanesulfonyl-phenyl)-ethyl]-amide] as the compound, how does the IC50 read?
**A.** 8.4 nM

**Q.** `CC(C)C[C@H](N[C@@H](c1ccc(Br)cc1)C(F)(F)F)C(=O)N[C@H](C#N)Cc1ccc(C#N)cc1` [Example 21, (S)-2-[(S)-1-(4-Bromo-phenyl)-2,2,2-trifluoro-ethylamino]-4-methyl-pentanoic acid [(S)-1-cyano-2-(4-cyano-phenyl)-ethyl]-amide] was tested. Which IC50 did it give?
**A.** 0.94 nM

**Q.** How did the IC50 turn out when `CC(C)(F)C[C@H](N[C@@H](c1ccc(-c2ccc(-c3ccc(S(C)(=O)=O)cc3)cc2)cc1)C(F)(F)F)C(=O)N[C@H](C#N)Cc1ccccc1` [Example 24, (S)-4-Fluoro-4-methyl-2-[(S)-2,2,2-trifluoro-1-(4-methanesulfonyl-[1,1′;4′,1″]terphenyl-4″-yl)-ethylamino]-pentanoic acid ((S)-benzyl-cyano-methyl)-amide] was run?
**A.** 16 nM

**Q.** With `C[S+]([O-])c1ccc(-c2ccc([C@H](N[C@@H](CC(C)(C)F)C(=O)N[C@H](C#N)Cc3ccc(C#N)cc3F)C(F)(F)F)cc2)cc1` (stereo partly drawn) [Example 25, (S)-4-Fluoro-4-methyl-2-[(S)-2,2,2-trifluoro-1-(4′-methanesulfinyl-biphenyl-4-yl)-ethylamino]-pentanoic acid [(S)-1-cyano-2-(4-cyano-2-fluoro-phenyl)-ethyl]-amide] as the compound, how does the IC50 read?
**A.** 0.75 nM

**Q.** How did the IC50 turn out when `CSc1ccc(-c2ccc([C@H](N[C@@H](CC(C)(C)F)C(=O)N[C@H](C#N)Cc3ccc(C#N)cc3F)C(F)(F)F)cc2)cc1` [Example 26, (S)-4-Fluoro-4-methyl-2-[(S)-2,2,2-trifluoro-1-(4′-methylsulfanyl-biphenyl-4-yl)-ethylamino]-pentanoic acid [(S)-1-cyano-2-(4-cyano-2-fluoro-phenyl)-ethyl]-amide] was run?
**A.** 4.2 nM
